From US20220267728A1, “ALLOGENIC CAR-T CELL THERAPY” (TX MEDIC AB, priority 2019, published 2022) come the findings set out here.

One test has as its system whole blood. The experiment in a line: Human whole blood loop assay: ACT kaolin time and prothrombin/INR time (i-STAT cartridges). As to conditions: for Activated clotting time (ACT) / Prothrombin time (PT) / international normalized ration (INR): dextran sulfate 0.2 mg/ml, no CAR-T cells. As to the method:
The objective of this Example was to investigate dextran sulfate in a human whole blood loop assay in combination with CAR-T cells. Cellular activation and viability and blood status was assessed after incubation in the human whole loop system with dextran sulfate with and without CAR-T cells.
(§1) Blood from healthy donors was taken in an open system and immediately mixed with test compounds (CD19-CAR T cells and dextran sulfate (Tikomed AB, Sweden, WO 2016/076780, referred to as IBsolvMIR in the figures). Autologous setting included CAR-T cells generated from the same donor that donated whole blood. In allogeneic setting, blood and CAR-T cells were not matched (from different donors). All materials in direct contact with whole blood were surface heparinized in accordance with the manufacturers protocol (Corline, Sweden). Whole blood (2 ml) was added to PVC-tubing, which, with a surface heparinized metal connector, formed a loop. The dextran sulfate (0.2 g/L) and CAR-T cells (0.5-5×10^6 cells) were added according to Table 1, and the loops were set to rotate on a wheel at 37° C. Blood aliquots were sampled, andeEthylenediaminetetraacetic acid (EDTA) was added to a final concentration of 10 mM to stop reactions at a given time-point. The automated hematology analyzer XP-300 or XN-350 (Sysmex) was used to assess blood cell count at different time points, while i-STAT cartridges (Abbott) were used to measure ACT kaolin time and prothrombin/INR time measurements.

Another test has as its system C3a. The experiment in a line: Complement analysis (C3a) ELISA on plasma from whole blood loops. To be noted: data not shown. Further details: species or system human. As to the method:
The plasma samples were kept on ice, and plasma was collected by centrifugation at 2000×g at 4° C. for 20 minutes. The plasma was stored at −70° C. until the time of analysis. Complement analysis (C3a) was performed on plasma collected at various time points after assay start with ELISA kits from RayBiotech according to the manufacturers instructions. For experiments involving flow cytometry, blood samples were mixed with EDTA (final concentration of 10 mM), followed by the Fc block (BD Biosciences) and antibody master mix containing anti-human fluorochrome-labeled antibodies for surface staining (CD3, CD4, CD8, CD20, CD56, CD16, CD66b, CD14, BioLegend), including activation markers (CD107a, CD69, CD11b, Biolegend). Antibody master mix was incubated with whole blood for 30 min at 4° C., washed with PBS and analyzed using Cytoflex (Beckman Coulter).

For test [1], the system named is T cell population (CD3+, CD4+, CD8+ T cells). The experiment in a line: Whole blood loop assay: flow cytometry of blood donor T cells (activation markers, viability). Type of test: cell-based, human. To be noted: groups with and without dextran sulfate; 60 min; FIGS. 3A to 3I.
Excerpt: as §1, with “The automated hematology analyzer XP-300 or XN-350 (Sysmex) was used to assess blood cell count at different time points, while i-STAT cartridges (Abbott) were used to measure ACT kaolin time and prothrombin/INR time measurements.” left out
(§2) The plasma samples were kept on ice, and plasma was collected by centrifugation at 2000×g at 4° C. for 20 minutes. […] Antibody master mix was incubated with whole blood for 30 min at 4° C., washed with PBS and analyzed using Cytoflex (Beckman Coulter).

The next test has as its system CAR-T cell population. Nature of the test: Whole blood loop assay: flow cytometry of CAR-T cell population (CAR marker, CD69, CD107a, viability). Type of test: cell-based, human. As to the method:
Peripheral blood mononuclear cells (PBMCs) were isolated from healthy donors using Lymphoprep (Progen), stored in −70° C. in freezing medium (10% dimethyl sulfoxide (DMSO), 90% fetal calf serum (FCS)) and cultured in RPMI-1640 supplemented with 10% FCS and 1% penicillin/streptomycin. The PBMCs were activated with 1 μg/ml OKT-3 (Biolegend) and 200 IU/ml IL-2 (Roche) for 1 day to selectively stimulate T cells. Retronectin plates (Takara) were prepare in advance (7 μg per well, overnight at 4° C.) and incubated twice with 500 μl concentrated CD19-CAR-encoding retrovirus (2G) or Mock retrovirus, previously described in Karlsson et al., Evaluation of Intracellular Signaling Downstream Chimeric Antigen Receptors, PLOS ONE 2015, 10(12):e0144787, for 30 min at 37° C. Activated cells were transduced with 3 ml concentrated CD19-CAR-encoding retrovirus or Mock retorvirus for 2 days at 37° C. in the presence of retronectin-coated plates and 100 IU IL-2. Cells were cultured with 100 IU/ml IL-2 and expanded for 2 weeks before analysis. For analysis of CD19-CAR expression, cells were stained with 0.5 μl of anti-CAR-Dylight649 (Jackson ImmunoResearch), washed with phosphate-buffered saline (PBS) and followed by surface labeling (CD3, CD8, CD4, TF). Flow cytometry analysis was performed using Cytoflex (Beckman Coulter). Cell count and cell viability was determined using trypan blue (T-20 Counter, Bio-Rad).
as §1, with “The automated hematology analyzer XP-300 or XN-350 (Sysmex) was used to assess blood cell count at different time points, while i-STAT cartridges (Abbott) were used to measure ACT kaolin time and prothrombin/INR time measurements.” left out
as §2

Test [2] has as its system B cell population (CD19+). Nature of the test: Whole blood loop assay: flow cytometry of B cells (count, CD69, CD107a). Type of test: cell-based, human.
Excerpt: as §1, with “The automated hematology analyzer XP-300 or XN-350 (Sysmex) was used to assess blood cell count at different time points, while i-STAT cartridges (Abbott) were used to measure ACT kaolin time and prothrombin/INR time measurements.” left out
as §2

The test system of the next test is monocyte population. The experiment in a line: Whole blood loop assay: CD11b on monocytes by flow cytometry. Type of test: cell-based, human. As to conditions: addition of dextran sulfate to loops; FIG. 9A.
Excerpt: as §1, with “The automated hematology analyzer XP-300 or XN-350 (Sysmex) was used to assess blood cell count at different time points, while i-STAT cartridges (Abbott) were used to measure ACT kaolin time and prothrombin/INR time measurements.” left out
as §2

A further test concerns granulocyte population. Nature of the test: Whole blood loop assay: CD11b on granulocytes by flow cytometry. Type of test: cell-based, human. As to conditions: addition of dextran sulfate to loops; FIG. 9B.
Excerpt: as §1, with “The automated hematology analyzer XP-300 or XN-350 (Sysmex) was used to assess blood cell count at different time points, while i-STAT cartridges (Abbott) were used to measure ACT kaolin time and prothrombin/INR time measurements.” left out
as §2

Where [3] appears, read: allogenic donor, time point 60 min.
[4] abbreviates: autologous donor, time point 10 min.
Where [5] appears, read: autologous donor, time point 60 min.

Regarding dextran sulfate, the “coagulation measurements (ACT, PTT, INR)” value with whole blood (Table 2 and Table 3, autologous and allogenic donor) is recorded as “rise in all coagulation measurements”. The figures for the Activated clotting time (ACT) with whole blood (setting [3]) and in the test on whole blood (setting [4]) were 356 s and 485 s, respectively. Besides, the Prothrombin time (PT) in the test with whole blood (setting [3]) amounted to 30.7 s; in the test with whole blood (setting [4]) it was 16.5 s; in the test on whole blood (setting [5]) it was 17.9 s. The results for the “international normalized ration (INR)” value in the test on whole blood (setting [3]), with whole blood (setting [4]) and in the test on whole blood (setting [5]) were 2.7, 1.4 and 1.5, respectively. For the same substance, the C3a levels entry with C3a (in co-administration with CAR-T cells) was “decreased levels of C3a”; in the test on C3a (substance added alone, both donors), “decreased levels of C3a”. In addition, the “viability and activation of T cell population (blood donors CD3+, CD4+, CD8+ T cells)” value in test [1] is recorded as “similar”. In the test with CAR-T cell population (allogenic donor, FIG. 4A), the “percentage of cells positive for the CAR-T cell specific marker in the T cell population” value is listed as “increased”. The “viability of the CAR-T cells” value in the test with CAR-T cell population (autologous donor, without or with dextran sulfate, FIG. 5C) is on record as about 60%. Also, in the test on CAR-T cell population (when dextran sulfate was added), the “proportion of CD3+ CAR-T cells and CD8+ CAR-T cells, autologous versus allogenic groups” value is recorded as “more similar”. In addition, the “levels of activation markers (CD69, CD107a) in the allogenic CAR-T cell groups” value in the test with CAR-T cell population (with dextran sulfate, compared with autologous CAR-T cell groups, FIGS. 5A, 5B and 6) is recorded as “more similar to the levels of activation markers in the autologous CAR-T cell groups”. In addition, the “impact on CAR functionality” value in test [2] (from B cell count and activation pattern) is listed as “did not have any negative impact”. In test [2] (samples with or without dextran sulfate), the “B cell count and activation pattern” value is “similar”. In addition, the “expression of activation marker CD11 b on monocytes” value in the test on monocyte population is “decreased”. In addition, in the test with granulocyte population, the “expression of activation marker CD11 b on granulocytes” value is on record as “decreased”.
